Assay results reported in patent US20230337677A1, “ARYL AND PYRIDYL AMIDE PESTICIDES AND COMPOSITIONS THEREOF” (University of Florida Research Foundation, Incorporated, priority 2019, published 2023).
Where a name gives a salt, the structure may show the parent alone.

Assays:
Type in all cases: in vivo
[1] = test system: Anopheles gambiae Akron kdr (Akdr) strain, resistant to pyrethroids; assay: Topical toxicity (24 hour mortality), An. gambiae Akdr; settings: for An. gambiae RR (resistance ratio): 24 h LD50 resistant strain (AKDR)/24 h LD50 susceptible strain (G3)
Procedure: (§1) The Aedes aegypti strains Orlando (sensitive) as well as the Puerto Rico (PR, resistant to permethrin) were used. The Anopheles gambiae (G3 sensitive strain, as well as Akron kdr (Akdr) strain, resistant to pyrethroids were also assessed. The larvae were provided by the USDA, Gainesville Fl, and raised in a pan with tap water maintained at 28° C. Larvae were fed a ground liver and yeast mixture, and pupae were placed in emergence cages. Adults were held at 28° C. and provided with cotton balls soaked in 10% sugar water for rearing and for all bioassays.
(§2) Female adults from 3 to 6 days were used for the experiments. The drug was dissolved in ethanol and then applied with a micro-applicator on the thorax, between the legs: 200 nL of drug per female mosquito, with different concentrations of the drug; 10 mosquitos were treated together per concentration per replicate, and put together in a small container with free access to sweet water. Mortality, i.e. no visible movement, was assessed 24 hours after treatment. Every compound was assessed on at least 3 different cohorts of mosquitoes, and the LD50 values and slopes were determined with Probit analysis, corrected with Abbott's formula.

[2] = test system: Anopheles gambiae G3 sensitive strain; assay: Topical toxicity (24 hour mortality), An. gambiae G3
Procedure: as §1, §2

[3] = test system: Aedes aegypti strain Orlando (sensitive); assay: Topical toxicity (24 hour mortality), Ae. aegypti Orlando
Procedure: as §1, §2

[4] = test system: Aedes aegypti mosquitoes, insecticide-susceptible Orlando strain; settings: for 1 h % Repellency, 100 μg/cm^2: screened at 100 μg/cm^2, strain not given; for vapor repellency / mortality, statement in words (Example 8): structure-activity analysis of Table 2; for 1 h Repellency EC50, μg/cm^2: (OR)
Procedure: The tubes as shown were held horizontally on the bench.
For assessing behavioral repellency (FIG. 1), Aedes aegypti mosquitoes were used from the insecticide-susceptible Orlando strain and the pyrethroid-resistant Puerto Rico strain. Sixteen female mosquitoes were transferred to a glass tube (12.5 cm long, 2.5 cm outer diameter) with the ends covered with netting. Each compound was dissolved in 1 mL of acetone and serial dilutions ranging from 30-0.01 μg/ml were made. Circular filter papers (5 cm^2) were saturated with 50 μL of each concentration and allowed 10 min for solvent evaporation. The filter papers were then placed in clear conical polypropylene caps and fixed to the end of the glass tubes. The netting prevented mosquito contact with the filter paper. The tubes were then aligned with a mark denoting the midline and the proportion of mosquitoes on the chemically treated side was scored for up to 60 min. At the end of the test, the tube was placed in a cage and the ability of the mosquitoes to fly out of the tube was assessed for 30 min. […] This post-test evaluated whether any non-responding mosquitoes (not repelled) resulted from intoxication or disorientation from the test chemical. For assessment of lethality, insects were held for 24 hr under constant exposure in glass tubes having treated filter papers.
Compounds were first screened at 100 μg/cm^2 for repellency and 24 h mortality.

[5] = topical application, 24 h mortality, female adults, pyrethroid-resistant Akdr strain
[6] = topical application, 24 h mortality, female adults, susceptible strain G3
[7] = topical application, 24 h mortality, female adults, susceptible Orlando strain

SMILES	Ae. aegypti OR LD50 [3, 7]	1 h % Repellency, 100 μg/cm^2 [4]	other results
O=C(Nc1cc(Br)nc(Br)c1)C(F)F [GMR039]	2253 ng/mg	–	An. gambiae RR (resistance ratio) [1]: 1.1; An. gambiae AKDR LD50 [1, 5]: 23.8 ng/mg; An. gambiae G3 LD50 [2, 6]: 20.8 ng/mg
O=C(CSC(F)(F)F)Nc1cc(F)c(F)c(F)c1 [GMR177]	220 ng/mg	30%	vapor repellency / mortality, statement in words (Example 8) [4]: poor activity
O=C(Nc1ncc(C(F)(F)F)cc1Cl)C(F)(F)C(F)(F)C(F)(F)F [GMR080]	>1000 ng/mg	–	An. gambiae AKDR LD50 [1, 5]: >100 ng/mg
CCOC(=O)c1ccccc1C(F)(F)F [MTFI-5-13B]	–	12%	–
COC(=O)c1cccc(C(F)(F)F)c1N [MTFI-5-12B]	–	–	vapor repellency / mortality, statement in words (Example 8) [4]: moderate repellency in some instances
O=C(CCC1CCCCC1)Nc1c(Cl)cc(C(F)(F)F)cc1Cl [MTFI-3-5A]	–	0%	–
Cc1cc(NC(=O)C(F)F)cc(C)n1 [GMR047]	>3000 ng/mg	–	An. gambiae AKDR LD50 [1, 5]: >100 ng/mg; An. gambiae G3 LD50 [2, 6]: >100 ng/mg
CC(C)CC(=O)Nc1cc(Cl)nc(Cl)c1 [GMR145]	775 ng/mg	–	–
COC(=O)c1ccccc1N(C)C(F)(C(F)(F)F)C(F)(F)F [MTFI-5-11A]	–	–	vapor repellency / mortality, statement in words (Example 8) [4]: moderate repellency in some instances
O=C(Nc1cc(Cl)nc(C(F)(F)F)c1)C(F)(F)F [GMR035]	106 ng/mg	–	An. gambiae RR (resistance ratio) [1]: 1.7; An. gambiae AKDR LD50 [1, 5]: 52.1 ng/mg; An. gambiae G3 LD50 [2, 6]: 30.5 ng/mg
O=C(Nc1cc(Cl)nc(Cl)c1)C(F)(F)C(F)(F)C(F)(F)C(F)(F)C(F)(F)F [GMR051]	23.4 ng/mg	–	An. gambiae RR (resistance ratio) [1]: 0.7; An. gambiae AKDR LD50 [1, 5]: 3.7 ng/mg; An. gambiae G3 LD50 [2, 6]: 5.2 ng/mg
O=C1C2=C(CCCC2)C(=O)N1COC(=O)C(F)(F)C(F)(F)C(F)(F)F [GMR096]	2538 ng/mg	–	An. gambiae G3 LD50 [2, 6]: >100 ng/mg
O=C(Nc1cc(Cl)nc(Cl)c1)C(F)(F)C(F)(F)OC(F)(F)F [GMR084]	17.8 ng/mg	–	An. gambiae RR (resistance ratio) [1]: 1.8; An. gambiae AKDR LD50 [1, 5]: 11.00 ng/mg; An. gambiae G3 LD50 [2, 6]: 6.04 ng/mg
O=C(Nc1cc(Cl)nc(C(F)(F)F)c1)C(F)(F)C(F)(F)C(F)(F)F [compound 56]	–	–	An. gambiae AKDR LD50 ([1]; Table 5, topical, 24 h): 5.30 ng/mg; An. gambiae G3 LD50 ([2]; Table 5, topical, 24 h): 6.50 ng/mg; Ae. aegypti OR LD50 ([3]; Table 5, topical, 24 h): 17.30 ng/mg
O=C(Nc1cc(Br)nc(Br)c1)C(F)(F)F [GMR040]	1223 ng/mg	–	An. gambiae AKDR LD50 [1, 5]: >100 ng/mg; An. gambiae G3 LD50 [2, 6]: >100 ng/mg
COC(=O)c1ccccc1C(F)(F)F [MTFI-5-13A]	–	6%	–
O=C(Nc1ccccc1C(F)(F)F)C(F)(F)F [MTFI-1-4C]	–	−6%	–
CCCC(=O)Nc1cccc(OC(F)(F)F)c1 [GMR162]	–	50%	An. gambiae AKDR LD50 [1, 5]: >1000 ng/mg; An. gambiae G3 LD50 [2, 6]: >1000 ng/mg
O=C(CCl)Nc1cccc(F)c1 [MTFI-5-1A]	–	6%	–

SMILES	Ae. aegypti OR LD50 [3, 7]	1 h % Repellency, 100 μg/cm^2 [4]	other results
COC(=O)c1ccccc1O [MTFI-5-14A]	–	70%	vapor repellency / mortality, statement in words (Example 8) [4]: moderate repellency and toxicity
O=C(Nc1ccnc(C(F)(F)F)c1)C(F)(F)C(F)(F)C(F)(F)C(F)(F)C(F)(F)F [GMR070]	1261 ng/mg	–	An. gambiae AKDR LD50 [1, 5]: 1261 ng/mg
CCC(=O)Nc1ccccc1OC(F)(F)F [GMR170]	–	94%	1 h Repellency EC50, μg/cm^2 [4]: 15 μg/cm^2
CC1(C)C(C=C(Cl)Cl)C1C(=O)O (stereo not drawn) [TFA, 1R-transfluthrin acid, reference compound]	–	–	repellency of TFA alone ([4]; alone): inactive alone
COC(=O)c1cc(C)c(C(F)(F)F)cc1N [MTFI-5-12C]	–	30%	vapor repellency / mortality, statement in words (Example 8) [4]: moderate repellency in some instances
COc1cc(NC(=O)C(F)(F)C(F)(F)C(F)(F)C(F)(F)C(F)(F)F)ccn1 [GMR071]	>2000 ng/mg	–	–
O=C(CCl)Nc1cc(C(F)(F)F)cc(C(F)(F)F)c1 [MTFI-3-1F]	–	88%	–
COC(=O)c1cc(C(F)(F)F)ccc1N [MTFI-5-12D]	–	84%	vapor repellency / mortality, statement in words (Example 8) [4]: moderate repellency in some instances
CCCCOC(=O)c1ccccc1O [MTFI-5-14C]	–	–	knockdown in 1 hr repellency test (XXkd = number of insects incapacitated out of 16 females) ([4]; in vivo): 8
O=C(CCC1CCCCC1)Nc1ccc(C(F)(F)F)cc1 [MTFI-3-4B]	–	8%	–
O=C(Nc1cc(Cl)cc(Cl)n1)C(F)(F)C(F)(F)C(F)(F)F [GMR078]	5668 ng/mg	–	An. gambiae AKDR LD50 [1, 5]: >100 ng/mg
O=C(Nc1ccnc(Cl)c1)C(F)(F)C(F)(F)C(F)(F)C(F)(F)C(F)(F)F [GMR068]	3425 ng/mg	–	An. gambiae AKDR LD50 [1, 5]: 3425 ng/mg
CC(C)(C)OC(=O)N(C(=O)C(F)(F)F)c1cc(Cl)nc(Cl)c1 [GMR119]	343 ng/mg	–	–
O=C(Nc1ccc(C(F)(F)F)cc1)c1cc(Cl)cc(Cl)c1 [MTFI-4-NA-1C]	–	8%	vapor repellency / mortality, statement in words (Example 8) [4]: poor results
O=C(CCC1CCCCC1)Nc1cccc(C(F)(F)F)c1 [MTFI-3-3A]	–	16%	–
O=C(NCC(F)(F)F)Nc1c(Cl)cc(C(F)(F)F)cc1Cl [MTFI-4-FPL-A]	–	0%	vapor repellency / mortality, statement in words (Example 8) [4]: reduced repellency
O=C(CCl)Nc1cccc(O)c1 [MTFI-5-15A]	–	36%	–
CCCC(=O)Nc1ccccc1OC(F)(F)F [GMR171]	–	100%	1 h Repellency EC50, μg/cm^2 [4]: 29 μg/cm^2
CCCCCC(=O)N(C(=O)CCCCC)c1cccc(OC(F)(F)F)c1 [GMR165]	–	62%	–

SMILES	Ae. aegypti OR LD50 [3, 7]	1 h % Repellency, 100 μg/cm^2 [4]	other results
O=C(Nc1ccc(Cl)cn1)C(F)(F)C(F)(F)C(F)(F)F [GMR079]	>1000 ng/mg	–	An. gambiae AKDR LD50 [1, 5]: >100 ng/mg
O=C(Nc1cc(C(F)(F)F)cc(C(F)(F)F)c1)C(F)(F)C(F)(F)C(F)(F)F [MTFI-4-2D]	–	12%	–
C=CCCCC(=O)Nc1ccccc1C(F)(F)F [MTFI-3-2E]	–	76%	–
CCCCCC(=O)Nc1c(F)c(F)nc(F)c1F [GMR065]	1225 ng/mg	–	An. gambiae AKDR LD50 [1, 5]: 1225 ng/mg
O=C(Nc1c(F)c(F)nc(F)c1F)C(F)(F)F [GMR081]	698 ng/mg	–	An. gambiae AKDR LD50 [1, 5]: >100 ng/mg
CCOC(=O)c1ccccc1O [MTFI-5-14B]	–	30%	vapor repellency / mortality, statement in words (Example 8) [4]: moderate repellency and toxicity
O=C(NCC(F)(F)F)c1cc(F)c(F)c(F)c1 [GMR173]	–	44%	vapor repellency / mortality, statement in words (Example 8) [4]: some repellency and mortality
CC(=O)N(C(C)=O)c1ccccc1OC(F)(F)F [GMR169]	–	82%	An. gambiae AKDR LD50 [1, 5]: >1000 ng/mg; An. gambiae G3 LD50 [2, 6]: >1000 ng/mg
Cc1cc(NC(=O)C(F)(F)C(F)(F)C(F)(F)C(F)(F)C(F)(F)F)cc(C)n1 [GMR073]	>3000 ng/mg	–	–
CC1(C)[C@H](C=C(Cl)Cl)[C@H]1C(=O)Nc1cc(F)cc(F)c1 [GMR179]	–	30%	–
CC(=O)Nc1ccc(C(F)(F)F)cc1 [MTFI-3-4A]	–	8%	–
O=C(Nc1cc(Cl)nc(Cl)c1)C(Cl)(Cl)Cl [GMR059]	866 ng/mg	–	–
O=C(Nc1ccccn1)C(F)(F)C(F)(F)C(F)(F)F [GMR060]	1758 ng/mg	–	–
COC(=O)c1cc(F)c(F)cc1N [MTFI-5-12A]	–	92%	1 h Repellency EC50, μg/cm^2 [4]: 23 μg/cm^2; vapor repellency / mortality, statement in words (Example 8) [4]: moderate repellency in some instances
COC(=O)c1cccc(C(F)(F)F)c1N [MTFI-5-512B]	–	42%	–
C=CC(=O)Nc1ccccc1C(F)(F)F [GMR021]	–	92%	1 h Repellency EC50, μg/cm^2 [4]: 32 μg/cm^2
CCCC(=O)N(C(=O)CCC)c1cccc(OC(F)(F)F)c1 [GMR163]	–	50%	An. gambiae AKDR LD50 [1, 5]: >1000 ng/mg; An. gambiae G3 LD50 [2, 6]: >1000 ng/mg
O=C(Nc1cc(Cl)nc(Cl)c1)C(C(F)(F)F)C(F)(F)F [GMR174]	500 ng/mg	–	–
